Test results from US20240245658A1, “TAAR1 AND SEROTONIN MODULATORS, AND PHARMACEUTICAL COMPOSITIONS, AND METHODS OF USE THEREOF” (Sunovion Pharmaceuticals Inc., priority 2021, published 2024).
Where two headings read alike, the source gives them in different places.

Key:
Assay type in all cases: cell-based
human 5-HT7 receptor = biological target: T1, human 5-HT7 receptor (Homo sapiens, UniProt P34969); assay: 5HT7 Antagonism Assay (Euroscreen FAST-0499C), cAMP HTRF; settings: CHO-K1 cells expressing human 5-HT7, reference agonist at EC80, cAMP HTRF
T1 construct: host or cells: CHO-K1
T1 sequence (P34969 whole entry): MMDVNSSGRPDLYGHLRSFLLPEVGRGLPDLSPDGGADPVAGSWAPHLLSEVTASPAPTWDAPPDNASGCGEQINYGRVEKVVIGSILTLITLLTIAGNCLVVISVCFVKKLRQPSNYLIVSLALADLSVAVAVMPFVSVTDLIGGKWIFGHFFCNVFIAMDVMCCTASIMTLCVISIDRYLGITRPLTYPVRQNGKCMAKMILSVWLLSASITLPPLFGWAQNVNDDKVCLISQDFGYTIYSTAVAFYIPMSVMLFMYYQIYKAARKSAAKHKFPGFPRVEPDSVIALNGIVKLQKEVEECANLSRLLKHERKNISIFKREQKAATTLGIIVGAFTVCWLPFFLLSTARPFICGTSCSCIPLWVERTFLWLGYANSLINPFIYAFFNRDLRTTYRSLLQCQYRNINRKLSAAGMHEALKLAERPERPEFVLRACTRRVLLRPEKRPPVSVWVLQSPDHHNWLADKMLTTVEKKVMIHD
Procedure: 5HT7 Antagonism Assay Protocol (Euroscreen FAST-0499C)
CHO-K1 cells expressing the human 5-HT7 receptor, grown prior to the test in media without antibiotic, were detached by gentle flushing with PBS-EDTA (5 mM EDTA), recovered by centrifugation and resuspended in assay buffer (Krebs-Ringer HEPES buffer: 5 mM KCl, 1.25 mM MgSO4, 124 mM NaCl, 25 mM HEPES, 13.3 mM Glucose, 1.25 mM KH2PO4, 1.45 mM CaCl2), 0.5 g/l BSA, supplemented with 1 mM IBMX).
Dose response curves were performed in parallel with reference compounds (e.g., 5-carboxamidotryptamine (5-CT)).
For antagonist testing in a 384 well plate: 5 μl of cells (3000 cells) were mixed with 5 μl of a mix of test compound and reference agonist (for a final assay concentration corresponding to its EC80) diluted in assay buffer. The plates were then incubated for about 30 minutes at about room temperature. After addition of the lysis buffer containing cAMP-d2 and anti-cAMP cryptate detection reagents, plates were incubated for about 1 hour at about room temperature, and fluorescence ratios were measured according to the manufacturer's specifications (HTRF kit: cAMP Gs dynamic kit, Cisbio Bioassays, 62AM4PEJ).
(§1) Compounds were tested at the following nanomolar concentrations, in duplicate: 0.3 nM, 1 nM, 3 nM, 10 nM, 30 nM, 100 nM, 300 nM, 1,000 nM, 3,000 nM, and 10,000 nM.

human TAAR1 receptors = biological target: T2, human TAAR1 receptors (Homo sapiens, UniProt Q96RJ0); assay: TAAR1 Agonism Assay: cAMP HTRF assay for Gs coupled receptor TAAR1 (Euroscreen FAST-0987C); settings: CHO-K1 cells expressing human TAAR1, cAMP HTRF
T2 construct: host or cells: CHO-K1
T2 sequence (Q96RJ0 1-339): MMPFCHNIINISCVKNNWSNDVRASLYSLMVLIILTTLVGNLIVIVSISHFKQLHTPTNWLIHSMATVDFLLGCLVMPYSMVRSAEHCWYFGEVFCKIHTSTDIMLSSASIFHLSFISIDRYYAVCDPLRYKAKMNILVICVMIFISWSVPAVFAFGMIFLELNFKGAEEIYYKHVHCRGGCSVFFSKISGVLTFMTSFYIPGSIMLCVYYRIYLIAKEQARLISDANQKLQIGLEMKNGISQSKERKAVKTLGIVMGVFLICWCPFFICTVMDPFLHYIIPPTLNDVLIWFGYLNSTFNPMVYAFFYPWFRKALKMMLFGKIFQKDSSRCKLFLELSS
Procedure: Dose response curves were performed in parallel with the reference compound, tyramine.
For the TAAR1 agonist test (performed in a 384 well plate): 5 μl of cells (about 3,000 cells) were mixed with 5 μl of the test compound diluted in assay buffer and then incubated for about 30 minutes at about room temperature. After addition of the lysis buffer containing cAMP-d2 and anti-cAMP cryptate detection reagents, plates were incubated for about a 1-hour incubation at about room temperature, and fluorescence ratios were measured according to the manufacturer specifications, with the HTRF (Homogeneous Time Resolved Fluorescence) kit (cAMP Gs dynamic kit, Cisbio Bioassays, 62AM4PEJ).
as §1

human 5-HT2A receptor = biological target: T3, human 5-HT2A receptor (Homo sapiens, UniProt P28223); assay: 5HT2A Antagonism Assay (Euroscreen FAST-05051), IP-One HTRF
T3 construct: host or cells: CHO-K1
T3 sequence (P28223 whole entry): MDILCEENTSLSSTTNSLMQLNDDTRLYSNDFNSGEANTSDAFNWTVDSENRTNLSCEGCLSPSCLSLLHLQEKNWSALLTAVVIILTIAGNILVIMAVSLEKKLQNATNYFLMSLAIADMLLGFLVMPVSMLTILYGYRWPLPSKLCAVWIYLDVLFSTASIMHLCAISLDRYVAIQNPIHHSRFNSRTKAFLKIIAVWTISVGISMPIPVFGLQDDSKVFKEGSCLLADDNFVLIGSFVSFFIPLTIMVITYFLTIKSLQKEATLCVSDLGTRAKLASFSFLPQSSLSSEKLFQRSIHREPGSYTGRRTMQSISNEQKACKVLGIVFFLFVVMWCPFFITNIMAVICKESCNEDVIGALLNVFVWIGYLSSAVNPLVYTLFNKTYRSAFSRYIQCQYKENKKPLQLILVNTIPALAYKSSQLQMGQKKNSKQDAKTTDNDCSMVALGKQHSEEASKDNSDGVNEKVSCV
Procedure: 5HT2A Antagonism Assay Protocol (Euroscreen FAST-05051)
CHO-K1 cells expressing the human 5-HT2A receptor grown to mid-log phase in culture media without antibiotics, were detached with PBS-EDTA, centrifuged, and resuspended in the IP-One Gq kit (Cisbio Bioassays, 62IPAPEC) stimulation buffer.
For antagonist testing in a 384 well plate: 5 μl of cells (20,000 cells) were mixed with 5 μl of a mix of test compound and reference agonist (for a final assay concentration corresponding to its EC80) diluted in stimulation buffer. The plate was incubated for 60 minutes at 37° C. in a humidified atmosphere of 95% air with 5% CO2, then 5 μL of IP1-d2 and anti-IP1 cryptate detection reagents were added to each well, the plates were incubated for about 1 hour at about room temperature. Fluorescence ratios are measured according to the manufacturer's specification (IP-One Gq kit (Cisbio Bioassays, 62IPAPEC).
Dose response curves were performed in parallel with reference compounds (e.g., α-methyl-5-HT. Compounds were tested at the following nanomolar concentrations, in duplicate: 0.3 nM, 1 nM, 3 nM, 10 nM, 30 nM, 100 nM, 300 nM, 1,000 nM, 3,000 nM, and 10,000 nM

[1] = 5-HT2A (IC50), CHO-K1 cells expressing human 5-HT2A, reference agonist at EC80, IP-One

| SMILES | EC50 (human TAAR1 receptors) [µM] | also measured |
| --- | --- | --- |
| NCC1Cc2ccccc2Oc2cc(F)ccc21 (single isomer, unassigned) [Compound 1, (R*)-(7-fluoro-10,11-dihydrodibenzo[b,f]oxepin-10-yl)methanamine] | 1 to 10 | IC50 (human 5-HT7 receptor): ≥ 10 µM; IC50 (human 5-HT2A receptor; [1]): < 1000 nM |
| NCC1Cc2ccccc2Oc2cc(F)ccc21 (single isomer, unassigned) [Compound 2, (S*)-(7-fluoro-10,11-dihydrodibenzo[b,f]oxepin-10-yl)methanamine] | < 1 | IC50 (human 5-HT7 receptor): ≥ 10 µM; IC50 (human 5-HT2A receptor; read-out: 5-HT2A (IC50), CHO-K1 cells expressing human 5-HT2A, reference agonist at EC80, IP-One): < 1000 nM |
| CNCC1Cc2ccccc2Oc2cc(F)ccc21 (single isomer, unassigned) [Compound 3, (R*)-1-(7-fluoro-10,11-dihydrodibenzo[b,f]oxepin-10-yl)-N-methylmethanamine] | > 10 | IC50 (human 5-HT7 receptor): 1 to 10 µM; IC50 (human 5-HT2A receptor; [1]): < 1000 nM |
| CNCC1Cc2ncccc2Oc2cc(F)ccc21 (single isomer, unassigned) [Compound 33, (R*)-1-(7-fluoro-10,11-dihydrobenzo[6,7]oxepino[3,2-b]pyridin-10-yl)-N-methylmethanamine] | > 10 |  |
| CNCC1Cc2ncccc2Oc2cc(F)ccc21 (single isomer, unassigned) [Compound 34, (S*)-1-(7-fluoro-10,11-dihydrobenzo[6,7]oxepino[3,2-b]pyridin-10-yl)-N-methylmethanamine] | < 1 |  |
| NCC1Cc2ncccc2Oc2cc(F)ccc21 (single isomer, unassigned) [Compound 35, (R*)-(7-fluoro-10,11-dihydrobenzo[6,7]oxepino[3,2-b]pyridin-10-yl)methanamine] | 1 to 10 |  |
| CNCC1Cc2ncc(F)cc2Oc2ccccc21 (single isomer, unassigned) [Compound 37, (R*)-1-(3-fluoro-10,11-dihydrobenzo[6,7]oxepino[3,2-b]pyridin-10-yl)-N-methylmethanamine] | > 10 |  |
| NCC1Cc2ccc(F)cc2Oc2ccccc21 (single isomer, unassigned) [Compound 88, (R*)-(3-fluoro-10,11-dihydrodibenzo[b,f]oxepin-10-yl)methanamine] | 1 to 10 |  |
| NCC1Cc2ccccc2Oc2ccc(F)cc21 (single isomer, unassigned) [Compound 93, (S*)-(8-fluoro-10,11-dihydrodibenzo[b,f]oxepin-10-yl)methanamine] | 1 to 10 |  |
| NCC1Cc2cc(F)ccc2Oc2ccccc21 (single isomer, unassigned) [Compound 97, (S*)-(2-fluoro-10,11-dihydrodibenzo[b,f]oxepin-10-yl)methanamine] | > 10 |  |
| CNCC1Cc2cc(F)ccc2Oc2ccccc21 (single isomer, unassigned) [Compound 99, (S*)-(2-fluoro-10,11-dihydrodibenzo[b,f]oxepin-10-yl)-N-methylmethanamine] | > 10 |  |
| CNCC1Cc2ccccc2Oc2c(F)cccc21 (single isomer, unassigned) [Compound 103, (S*)-(6-fluoro-10,11-dihydrodibenzo[b,f]oxepin-10-yl)-N-methylmethanamine] | 1 to 10 |  |
| CCNCC1Cc2ccccc2Oc2cccnc21 (single isomer, unassigned) [Compound 108, (S*)-1-(10,11-dihydrobenzo[6,7]oxepino[3,2-b]pyridin-11-yl)-N-ethylmethanamine] | < 1 |  |
| CN(C)CC1Cc2ccccc2Oc2cccnc21 (single isomer, unassigned) [Compound 110, (S*)-1-(10,11-dihydrobenzo[6,7]oxepino[3,2-b]pyridin-11-yl)-N,N-dimethylmethanamine] | > 10 |  |
| CNCC1Cc2c(F)cccc2Oc2cccnc21 (single isomer, unassigned) [Compound 139, (R*)-1-(9-fluoro-10,11-dihydrobenzo[6,7]oxepino[3,2-b]pyridin-11-yl)-N-methylmethanamine] | 1 to 10 |  |
| CNCC1Cc2c(C)cccc2Oc2cccnc21 (single isomer, unassigned) [Compound 142, (S*)-(9-methyl-10,11-dihydrobenzo[6,7]oxepino[3,2-b]pyridin-11-yl)-N-methylmethanamine] | 1 to 10 |  |
| CNCC1Cc2c(Cl)cccc2Oc2cccnc21 (single isomer, unassigned) [Compound 146, (S*)-(9-chloro-10,11-dihydrobenzo[6,7]oxepino[3,2-b]pyridin-11-yl)-N-methylmethanamine] | > 10 |  |
| NCC1Cc2cc(Br)ccc2Oc2cccnc21 (single isomer, unassigned) [Compound 148, (R*)-(8-bromo-10,11-dihydrobenzo[6,7]oxepino[3,2-b]pyridin-11-yl)methanamine] | < 1 |  |
| NCC1Cc2ncccc2Oc2cccc(F)c21 (single isomer, unassigned) [Compound 155, (R*)-(9-fluoro-10,11-dihydrobenzo[6,7]oxepino[3,2-b]pyridin-10-yl)methanamine] | 1 to 10 |  |
| CNCC1Cc2ncccc2Oc2cccc(F)c21 (single isomer, unassigned) [Compound 157, (R*)-(9-fluoro-10,11-dihydrobenzo[6,7]oxepino[3,2-b]pyridin-10-yl)-N-methylmethanamine] | > 10 |  |
| NCC1Cc2ncccc2Oc2ccc(Cl)cc21 (single isomer, unassigned) [Compound 168, (S*)-(8-chloro-10,11-dihydrobenzo[6,7]oxepino[3,2-b]pyridin-10-yl)methanamine] | 1 to 10 |  |
| CNCC1Cc2ncccc2Oc2ccc(Cl)cc21 (single isomer, unassigned) [Compound 169, (R*)-1-(8-chloro-10,11-dihydrobenzo[6,7]oxepino[3,2-b]pyridin-10-yl)-N-methylmethanamine] | > 10 |  |
| NCC1Cc2ncccc2Oc2c(F)cccc21 (single isomer, unassigned) [Compound 175, (R*)-(6-fluoro-10,11-dihydrobenzo[6,7]oxepino[3,2-b]pyridin-10-yl)methanamine] | 1 to 10 |  |
| CNCC1Cc2ncccc2Oc2c(F)cccc21 (single isomer, unassigned) [Compound 177, (R*)-1-(6-fluoro-10,11-dihydrobenzo[6,7]oxepino[3,2-b]pyridin-10-yl)-N-methylmethanamine] | > 10 |  |
| CNCC1Cc2ncccc2Oc2c(F)cccc21 (single isomer, unassigned) [Compound 178, (S*)-1-(6-fluoro-10,11-dihydrobenzo[6,7]oxepino[3,2-b]pyridin-10-yl)-N-methylmethanamine] | < 1 |  |
| C[C@H]1c2ccccc2Oc2cccnc2[C@H]1CN (stereo in doubt) [Compound 113, ((10R*,11R*)-10-methyl-10,11-dihydrobenzo[6,7]oxepino[3,2-b]pyridin-11-yl)methanamine] | > 10 |  |
| CNC[C@@H]1c2ncccc2Oc2ccccc2[C@@H]1C (stereo in doubt) [Compound 117, ((10R*,11R*)-10-methyl-10,11-dihydrobenzo[6,7]oxepino[3,2-b]pyridin-11-yl)-N-methylmethanamine] | > 10 |  |
